Laboratory results reported in PubChem BioAssay AID200 (DTP/NCI, 2004).
Where “and” joins values, the source holds several entries; their conditions need not be identical. Equal entries are not always repeated. Inconclusive results and toxic doses are left out.

System: B6C3F1 mice, B16 melanoma ip, median survival T/C
Experiment: NCI In Vivo Anticancer Drug Screen. Data for tumor model B16 Melanoma (intraperitoneal) in B6C3F1 mice
Conditions: endpoint: median survival time, higher = longer survival
In short: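 Transplantable tumor in mice; treated vs vehicle control groups; survival or tumor size measured; value = T/C ratio.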

[1] = dose: 25.0 mg/kg/injection, schedule: Q01DX009 (ip), vehicle: saline with Tween-80
[2] = dose: 12.5 mg/kg/injection, schedule: Q01DX009 (ip), vehicle: saline
[3] = dose: 25.0 mg/kg/injection, schedule: Q01DX009 (ip), vehicle: saline
[4] = dose: 50.0 mg/kg/injection, schedule: Q01DX009 (ip), vehicle: saline
[5] = dose: 100.0 mg/kg/injection, schedule: Q01DX009 (ip), vehicle: saline
[6] = dose: 200.0 mg/kg/injection, schedule: Q01DX009 (ip), vehicle: saline
[7] = dose: 25.0 mg/kg/injection, schedule: Q01DX009 (ip), vehicle: Klucel (hydroxypropylcellulose) (HPC)
[8] = dose: 50.0 mg/kg/injection, schedule: Q01DX009 (ip), vehicle: Klucel (hydroxypropylcellulose) (HPC)
[9] = dose: 100.0 mg/kg/injection, schedule: Q01DX009 (ip), vehicle: Klucel (hydroxypropylcellulose) (HPC)
[10] = dose: 200.0 mg/kg/injection, schedule: Q01DX009 (ip), vehicle: Klucel (hydroxypropylcellulose) (HPC)
[11] = dose: 200.0 mg/kg/injection, schedule: Q01DX009 (ip), vehicle: saline with Tween-80
[12] = dose: 50.0 mg/kg/injection, schedule: Q01DX009 (ip), vehicle: saline with Tween-80

`CC(C)CC(NC(=O)C(O)C(N)Cc1ccccc1)C(=O)O` (centres undefined) was tested, and the T/C (dose: 10.0 micrograms/kg/injection, schedule: Q01DX005 (ip), vehicle: saline) was 99 % of control, the T/C (dose: 10.0 micrograms/kg/injection, schedule: Q01DX005 (oral), vehicle: saline) was 100 % of control and the T/C (dose: 10.0 micrograms/mouse/injection, schedule: Q01DX006 (ip), vehicle: saline) was 101 % of control. For the same molecule, the T/C (dose: 20.0 micrograms/mouse/injection, schedule: Q01DX006 (oral), vehicle: saline) was 95 % of control, the T/C (dose: 100.0 micrograms/kg/injection, schedule: Q01DX005 (ip), vehicle: saline) was 96 % of control and the T/C (dose: 100.0 micrograms/kg/injection, schedule: Q01DX005 (oral), vehicle: saline) was 98 % of control. The T/C (dose: 100.0 micrograms/mouse/injection, schedule: Q01DX006 (ip), vehicle: saline) was 108 % of control and the T/C (dose: 200.0 micrograms/mouse/injection, schedule: Q01DX006 (oral), vehicle: saline) was 102 % of control.
In the case of `O=C1CC(c2ccc(Cl)cc2Cl)Oc2ccc(Cl)cc21` (centres undefined), the T/C (dose: 3.13 mg/kg/injection, schedule: Q01DX009 (ip), vehicle: saline with Tween-80) is reported as 100 % of control, the T/C (dose: 6.25 mg/kg/injection, schedule: Q01DX009 (ip), vehicle: saline with Tween-80) is reported as 93 % of control and the T/C (dose: 12.5 mg/kg/injection, schedule: Q01DX009 (ip), vehicle: saline with Tween-80) is reported as 88 % of control. For the same molecule, the T/C [1] was 100 % of control.
For `c1cnc2ncncc2n1`, the T/C [2] was 110 % of control, the T/C [3] was 107 % of control and the T/C [4] was 97 % of control. The T/C [5] was 91 % of control and the T/C [6] was 99 % of control.
For `O=C1NC(=O)NC(C(=O)O)N1`, the T/C (dose: 0.75 mg/kg/injection, schedule: Q01DX009 (ip), vehicle: Klucel (hydroxypropylcellulose) (HPC)) was 108 % of control, the T/C (dose: 1.5 mg/kg/injection, schedule: Q01DX009 (ip), vehicle: Klucel (hydroxypropylcellulose) (HPC)) was 106 % of control and the T/C (dose: 3.0 mg/kg/injection, schedule: Q01DX009 (ip), vehicle: Klucel (hydroxypropylcellulose) (HPC)) was 116 % of control. The T/C (dose: 6.0 mg/kg/injection, schedule: Q01DX009 (ip), vehicle: Klucel (hydroxypropylcellulose) (HPC)) was 106 % of control and the T/C (dose: 12.0 mg/kg/injection, schedule: Q01DX009 (ip), vehicle: Klucel (hydroxypropylcellulose) (HPC)) was 107 % of control.
For `CCOC(=O)c1c[nH]c2oc(/C=N/N3CC(CN4CCOCC4)OC3=O)cc2c1=O` (centres undefined), the T/C [2] was 112 % of control, the T/C [3] was 118 % of control and the T/C [4] was 117 % of control.
`C[Si](C)(C)O/C=C1/CCOC1=O` was tested, and the T/C (dose: 12.5 mg/kg/injection, schedule: Q01DX009 (ip), vehicle: Klucel (hydroxypropylcellulose) (HPC)) was 104 % of control, the T/C [7] was 93 % of control and the T/C [8] was 95 % of control. The T/C [9] was 95 % of control and the T/C [10] was 106 % of control.
`Nc1cc(=O)[nH][nH]1` was tested, and the T/C (dose: 100.0 mg/kg/injection, schedule: Q01DX009 (ip), vehicle: saline with Tween-80) was 91 % of control, the T/C [11] was 96 % of control and the T/C (dose: 400.0 mg/kg/injection, schedule: Q01DX009 (ip), vehicle: saline with Tween-80) was 98 % of control.
`C/C=C/c1cc2n(c1)C(=O)c1cc(OC3OC(C)C(NC)C(C)(O)C3O)c(C)c(O)c1NC2O` (centres undefined) was tested, and the T/C (dose: 0.25 micrograms/kg/injection, schedule: Q01DX009 (ip), vehicle: saline) was 106 % of control and the T/C (dose: 2.0 micrograms/kg/injection, schedule: Q04DX003 (ip), vehicle: DMSO) was 114 % of control.
`C=C(OC)C(Nc1cc(OC)c(OC)cc1C(=O)OC1CC(O[C@@H]2C(=O)C(NC(=O)OC)=C3/C(=C\CSSSC)[C@]2(O)C#C/C=C\C#C[C@@H]3OC2OC(C)C(NOC3CC(O)C(SC)C(C)O3)C(O)C2OC2CC(OC)C(NCCC)CO2)OC(C)C1O)OC` (some centres undefined) was tested, and the T/C (dose: 0.16 micrograms/kg/injection, schedule: Q01DX009 (ip), vehicle: saline + alcohol) was 191 % of control, the T/C (dose: 0.32 micrograms/kg/injection, schedule: Q01DX009 (ip), vehicle: saline + alcohol) was 162 % of control and the T/C (dose: 0.63 micrograms/kg/injection, schedule: Q01DX009 (ip), vehicle: saline + alcohol) was 170 % of control. For the same molecule, the T/C (dose: 2.5 nanograms/kg/injection, schedule: Q01DX009 (ip), vehicle: saline + alcohol) was 119 % of control, the T/C (dose: 4.0 nanograms/kg/injection, schedule: Q01DX009 (ip), vehicle: saline + alcohol) was 93 % of control and the T/C (dose: 5.0 nanograms/kg/injection, schedule: Q01DX009 (ip), vehicle: saline + alcohol) was 109 % of control. For the same molecule, the T/C (dose: 14.0 nanograms/kg/injection, schedule: Q01DX009 (ip), vehicle: saline + alcohol) was 102 % of control, the T/C (dose: 20.0 nanograms/kg/injection, schedule: Q01DX009 (ip), vehicle: saline + alcohol) was 155 % of control and the T/C (dose: 24.0 nanograms/kg/injection, schedule: Q01DX009 (ip), vehicle: saline + alcohol) was 103 % of control. For the same molecule, the T/C (dose: 40.0 nanograms/kg/injection, schedule: Q01DX009 (ip), vehicle: saline + alcohol) was 219 % of control and 101 % of control, the T/C (dose: 66.67 nanograms/kg/injection, schedule: Q01DX009 (ip), vehicle: saline + alcohol) was 96 % of control and the T/C (dose: 111.11 nanograms/kg/injection, schedule: Q01DX009 (ip), vehicle: saline + alcohol) was 97 % of control.
`O=c1[nH]c(=O)n(C2CC(O)C(CO)O2)cc1Br` (centres undefined) was tested, and the T/C [7] was 92 % of control, the T/C [8] was 110 % of control and the T/C [9] was 110 % of control. The T/C [10] was 116 % of control, the T/C (dose: 400.0 mg/kg/injection, schedule: Q01DX009 (ip), vehicle: Klucel (hydroxypropylcellulose) (HPC)) was 114 % of control and the T/C (dose: 800.0 mg/kg/injection, schedule: Q01DX009 (ip), vehicle: Klucel (hydroxypropylcellulose) (HPC)) was 109 % of control.
In the case of `O=C(O)CC(NC(=O)CP(=O)(O)O)C(=O)O` (centres undefined), the T/C [3] is reported as 160 % of control, the T/C (dose: 37.5 mg/kg/injection, schedule: Q01DX005 (ip), vehicle: saline) is reported as 121 % of control and the T/C (dose: 37.5 mg/kg/injection, schedule: Q01DX005 (iv), vehicle: saline) is reported as 119 % of control. The T/C [4] was 172 % of control, the T/C (dose: 75.0 mg/kg/injection, schedule: Q01DX001 (ip), vehicle: saline) was 120 % of control and the T/C (dose: 75.0 mg/kg/injection, schedule: Q01DX001 (iv), vehicle: saline) was 110 % of control. The T/C (dose: 75.0 mg/kg/injection, schedule: Q01DX005 (iv), vehicle: saline) was 123 % of control, the T/C [5] was 202 % of control and the T/C (dose: 150.0 mg/kg/injection, schedule: Q01DX001 (iv), vehicle: saline) was 116 % of control. The T/C (dose: 150.0 mg/kg/injection, schedule: Q01DX005 (ip), vehicle: saline) was 178 % of control, the T/C (dose: 150.0 mg/kg/injection, schedule: Q01DX005 (iv), vehicle: saline) was 114 % of control and the T/C [6] was 226 % of control. The T/C (dose: 300.0 mg/kg/injection, schedule: Q01DX001 (iv), vehicle: saline) was 115 % of control and the T/C (dose: 300.0 mg/kg/injection, schedule: Q01DX005 (ip), vehicle: saline) was 163 % of control.
`CC(=O)CC(c1ccccc1)c1c(O)c2ccccc2oc1=O` (centres undefined) was tested, and the T/C (dose: 0.05 mg/kg/injection, schedule: Q01DX009 (ip), vehicle: Klucel (hydroxypropylcellulose) (HPC)) was 95 % of control, the T/C (dose: 0.05 mg/kg/injection, schedule: Q01DX009 (ip), vehicle: saline with Tween-80) was 121 % of control and 106 % of control and the T/C (dose: 0.1 mg/kg/injection, schedule: Q01DX009 (ip), vehicle: Klucel (hydroxypropylcellulose) (HPC)) was 104 % of control. For the same molecule, the T/C (dose: 0.1 mg/kg/injection, schedule: Q01DX009 (ip), vehicle: saline with Tween-80) was 91 % of control, the T/C (dose: 0.2 mg/kg/injection, schedule: Q01DX009 (ip), vehicle: Klucel (hydroxypropylcellulose) (HPC)) was 93 % of control and the T/C (dose: 0.2 mg/kg/injection, schedule: Q01DX009 (ip), vehicle: saline with Tween-80) was 124 % of control and 87 % of control. The T/C (dose: 0.4 mg/kg/injection, schedule: Q01DX009 (ip), vehicle: Klucel (hydroxypropylcellulose) (HPC)) was 108 % of control, the T/C (dose: 0.4 mg/kg/injection, schedule: Q01DX009 (ip), vehicle: saline with Tween-80) was 111 % of control and the T/C (dose: 0.8 mg/kg/injection, schedule: Q01DX009 (ip), vehicle: Klucel (hydroxypropylcellulose) (HPC)) was 98 % of control. The T/C (dose: 0.8 mg/kg/injection, schedule: Q01DX009 (ip), vehicle: saline with Tween-80) was 103 % of control.
`Nc1nc(-c2ccccc2)c(Br)c(=O)[nH]1` was tested, and the T/C [12] was 156 % of control and 183 % of control and the T/C (dose: 800.0 mg/kg/injection, schedule: Q01DX009 (ip), vehicle: saline with Tween-80) was 116 % of control.
`C(=C\c1nc2ccccc2[nH]1)/c1nc2ccccc2[nH]1` was tested, and the T/C [1] was 96 % of control, the T/C [12] was 98 % of control and the T/C [11] was 87 % of control.
For `Cc1c2cc[n+](CCO)cc2c(C)c2c1[nH]c1ccc(O)cc12`, the T/C (dose: 0.31 mg/kg/injection, schedule: Q01DX009 (ip), vehicle: saline) was 113 % of control and the T/C (dose: 0.62 mg/kg/injection, schedule: Q01DX009 (ip), vehicle: saline) was 91 % of control.
